Measured values reported in paper PMC8769378, “Underlining the Importance of Peripheral Protic Functional Groups to Enhance the Proton Exchange of Gd-Based MRI Contrast Agents” (Inorganic Chemistry, 2021).
Where two headings read alike, the source gives them in different places. Marks after values point to notes of the source that are not given here.

Tests used:
[1] = cited from earlier work
[2] = cited from earlier work; remark: listed apart in the source
[3] = cited from earlier work; remark: listed apart in the source
[4] = cited from earlier work; remark: listed apart in the source
[5] = Conditional stability constant pGd; type: physicochemical; conditions: pGd = −log[Gd]free, [Gd^3+] = 1 μM, [L] = 10 μM, pH = 7.4; calculated from the constants
[6] = cited from earlier work; remark: listed apart in the source
[7] = parameters: method as in PMID 18963244, doi:10.1016/0020-1693(96)05094-3; conditions: cited from earlier work
[8] = cited from earlier work; remark: listed apart in the source
[9] = Acid-assisted dissociation kinetics of Gd^III complexes followed by ^1H NMR relaxometry; conditions: calculated from acid-assisted dissociation only, pH = 7.4, 298 K; comparators from literature constants
Source text: In order to investigate the kinetic inertness of the Gd^III complex, the dissociation reactions of GdL2 were followed by ^1H NMR relaxometry (21 MHz and 298 K) in the presence of large acid excess ([HCl] = 0.01–1.0 M) to guarantee the pseudo-first-order kinetic conditions.
The kinetic inertness of the GdL2 was characterized by the rates of the dissociation reactions taking place in 0.01–1.0 M HCl solution. The dissociation reactions of the GdL2 were followed by measuring the longitudinal relaxation time of H2O protons (T1) with a Stelar relaxometer connected to a Bruker WP80 NMR electromagnet adapted to variable-field measurements (15–80 MHz proton Larmor frequency). The temperature was controlled with a Stelar VTC-91 airflow heater equipped with a calibrated copper–constantan thermocouple (uncertainty of ±0.1 °C). Measures were carried out at 21 MHz and 25 °C. The longitudinal relaxation time (T1) was measured with the “inversion recovery” method (180° – τ – 90°) by using 16 different τ values with a typical 90° pulse width of 6.5 μs, 4 scans. The measurements were performed with a 1 mM solution of the GdL2 complex. The relaxivity values were given as r1 = 1/T1p + 1/T1w where T1p and T1w are the relaxation times of the bulk water protons in the presence and absence of GdL2. The pseudo-first-order rate constants (kd) were calculated by fitting the relaxation rate (r1 = 1/T1p) data to eq 4. […] 4 where rr and rv are the relaxivity values of the reactants and the product (Gd^3+: r1p = 12.85 (2) mM^–1 s^–1, 21 MHz, 25 °C) and rt is the measured relaxivity at reaction time t. The temperature was maintained at 25 °C, and the ionic strength of the solutions was kept constant at [H^+] ≤ 0.15 M, [HCl] + [NaCl] = 0.15 M. The calculation of the kinetic parameters was performed by the fitting of the absorbance–time and relaxation rate–time data pairs with the Micromath Scientist computer program (version 2.0, Salt Lake City, UT).
Kinetic inertness of GdL2
In order to investigate the kinetic inertness of GdL2, the dissociation reactions of GdL2 were followed
by 1H-NMR relaxometry in the presence of large acid excess ([HCl]= 0.01 – 1.0 M) to guarantee the
pseudo-first-order kinetic conditions. The R1obs values as a function of time for the dissociation
In the presence of HCl excess, the dissociation of GdL2 can be treated as a pseudo-first-order process
and the rate of the reaction can be expressed by Eq. (S7)
where kd is a pseudo-first-order rate constant, [GdL]t and [GdL]tot are the concentrations of the GdL
species at time t and the total concentration of the complex, respectively. The rates of the dissociation
reactions were determined at different concentrations of HCl ([HCl]=0.01 – 1.0 M).
The proton assisted dissociation
of GdL2 might occur by the equilibrium formation of a protonated *Gd(H2L2) intermediate (Eq.
(S8)), which dissociates spontaneously (Eq. (S9)).
Gd(HL2) + H Gd(H2L2) (S8)

[10] = cited from earlier work; remark: listed apart in the source
[11] = cited from earlier work; for ^298r1-60-MHz: 298 K; for ^310r1-60-MHz: 310 K
[12] = cited from earlier work; remark: listed apart in the source
[13] = parameters: method as in PMID 34123071; conditions: 0.15 M NaCl, 298 K ref 7, cited from earlier work; for ^GdLH–1r1^is+os / ^GdLr1^is+os: 20 MHz
[14] = Longitudinal relaxivity r1 and relaxivity vs pH profiles; type: physicochemical; conditions: 21 MHz, 25 °C
Procedure: The longitudinal relaxivity values (r1) for GdL1 and GdL2, at 20 MHz (0.47 T), 298 K, and pH 7.4, are 4.7 and 5.1 mM^–1 s^–1, respectively. These are typical values of the clinical MRI contrast agents, i.e., low-molecular-weight q = 1 Gd^III chelates that tumble rapidly in solution.[1],[2] In particular, these values compare well with the r1 reported for GdHPDO3A[24] and other HPDO3A-like complexes such as GdHPDO3MA[25] or the series of Gd-hydroxypropylamide-DO3A (HPADO3A, Scheme 1)[7] complexes measured at the same experimental conditions.
At pH >3, the r1 values of GdL2 decrease with the increase of pH from 6.6 mM^–1 s^–1 to reach a plateau of 5.1 mM^–1 s^–1 around pH = 7.5. A further increase of the pH results in the slight increase of r1 reaching a maximum around pH = 9.5. Finally, at pH >9.5, another small decrease in r1 is observed. On the other hand, in the case of GdL1, the r1 values are independent from the pH in the range 4.0–7.5, whereas at pH >8.0, r1 increases up to 5.2 mM^–1 s^–1. The r1 values of GdL1 were measured in the pH range 4–10 in order to avoid the hydrolysis of the methyl ester. […] Then, the overall relaxivity, r1, is given by eq 1: [drawing 1] 1 where r1^is, r1^os, and r1^pr are the relaxivity components due to the inner and outersphere water molecules and the −OH group, respectively. r1^pr can be expressed as follows:[26]−[28] [drawing 2] 2
Proton relaxation measurements (1/T1) and the resulting 1/T1 NMRD profiles were measured on a fast-field cycling (FFC) Stelar SmarTracer relaxometer over a continuum of magnetic field strengths from 0.000 24 to 0.25 T (corresponding to 0.01–10 MHz proton Larmor frequencies). The relaxometer operates under computer control with an absolute uncertainty in 1/T1 of ±1%. […] Furthermore, the real temperature inside the probe head was additionally monitored by a Fluke 52 k/j digital thermometer (Fluke, Zürich, Switzerland). The gadolinium concentration was determined by measuring the bulk magnetic susceptibility shifts of the t-BuOH ^1H NMR signal. Additional data in the 20–120 MHz frequency range were obtained with a high field relaxometer (Stelar) equipped with the HTS-110 3T metrology cryogen-free superconducting magnet. […] The pH-dependent relaxivity measurements of GdL1 and GdL2 complexes were carried out by direct titration of the samples (GdL2, 3.0 < pH < 12.5; GdL1, 4 < pH < 10). The pH was adjusted by the stepwise addition of concentrated NaOH or HCl solution. Calculations were performed with the computer program Micromath Scientist, version 2.0 (Salt Lake City, UT).

[15] = 0.15 M NaCl, 25 °C ref [11] (SI)
[16] = I = 0.1 M Me4NCl, 298 K ref 19, 20
[17] = 0.1 M Me4NCl, 25 °C ref [13], [14] (SI)

O=C(O)CN1CCN(CC(=O)O)CCN(C(CO)C(O)CO)CCN(CC(=O)O)CC1 (stereo not drawn) [BT-DO3A]
CaL (log K, stability constant) ([1]; I = 0.1 M NaCl, 298 K ref 15): 12.1
GdL (log KGdL, stability constant) ([2]; I = 0.1 M NaCl, 298 K ref 15): 18.7
GdH2L (log K, *Gd(H2L) out-of-cage intermediate) ([2]; footnote 0.15 M NaCl, 25 °C ref [5] (SI)): 4.53
CuH2L (log K) ([3]; 0.1 M NaCl, 25 °C ref [5] (SI)): 2.4
CuHL (log K) ([3]; 0.1 M NaCl, 25 °C ref [5] (SI)): 3.8
CuL (log K, stability constant) ([3]; I = 0.1 M NaCl, 298 K ref 15): 19.1
log K1^H ([4]; I = 0.1 M NaCl, 298 K ref 15): 9.46
log K2^H ([4]; I = 0.1 M NaCl, 298 K ref 15): 9.36
log K3^H ([4]; I = 0.1 M NaCl, 298 K ref 15): 4.17
log K4^H ([4]; I = 0.1 M NaCl, 298 K ref 15): 3.02
pGd [5]: 15.63 ^h
ZnHL (log K) ([6]; 0.1 M NaCl, 25 °C ref [5] (SI)): 4.3
ZnL (log K, stability constant) ([6]; I = 0.1 M NaCl, 298 K ref 15): 17.0
log KNa(L) (stability of the Na^+ complex) [7]: 2.32
Gd(L)H–1 (log KGd(L)H-1) ([8]; I = 0.1 M NaCl, 298 K ref 15): 9.48

O=C(O)CN1CCN(CC(=O)O)CCN(CC(=O)O)CCN(CC(=O)O)CC1 [DOTA]
GdL (log KGdL, stability constant) ([2]; I = 0.1 M NaCl, 298 K ref 22): 24.7
GdH2L (log K, *Gd(H2L) out-of-cage intermediate) ([2]; footnote 0.15 M NaCl, 25 °C ref [16] (SI)): 6.07
log K1^H ([4]; I = 0.1 M NaCl, 298 K ref 22): 9.37
log K2^H ([4]; I = 0.1 M NaCl, 298 K ref 22): 9.14
log K3^H ([4]; I = 0.1 M NaCl, 298 K ref 22): 4.63
log K4^H ([4]; I = 0.1 M NaCl, 298 K ref 22): 3.91
pGd [5]: 22.09 ^h
log KNa(L) (stability of the Na^+ complex) [7]: 4.38

O=C([O-])CN1CCN(CC(=O)[O-])CCN(C(CO)C(O)CO)CCN(CC(=O)[O-])CC1.[Gd+3] (stereo not drawn) [GdBT-DO3A]
kd at pH = 7.4 [9]: 1.35 × 10^–12 s^–1
k1 (acid-catalyzed dissociation rate constant) ([10]; 298 K ref 15): 2.8 × 10^–5 M^–1 s^–1

O=C([O-])CN1CCN(CC(=O)[O-])CCN(CC(=O)[O-])CCN(CC(=O)[O-])CC1.[Gd+3] [GdDOTA]
kd at pH = 7.4 [9]: 7.28 × 10^–14 s^–1
K^HGdL ([10]; 298 K ref 18): 14 M^–1
k1 (acid-catalyzed dissociation rate constant) ([10]; 298 K ref 18): 1.8 × 10^–6 M^–1 s^–1

NC(=O)[C@H](O)CN1CCN(CC(=O)[O-])CCN(CC(=O)[O-])CCN(CC(=O)[O-])CC1.[Gd+3] [GdHPADO3A]
kd at pH = 7.4 [9]: 6.41 × 10^–12 s^–1
^298r1-60-MHz ([11]; 60 MHz ref 7): 3.6 mM^–1 s^–1
^310r1-60-MHz ([11]; 60 MHz ref 7): 2.9 mM^–1 s^–1
Δ^2 [11]: 8.5 10^19 s^–2
τR [11]: 62 ps
τv [11]: 14 ps
τR(SS) ([11]; determined for qSS = 2 and rSF = 3.5 Å ref 7): 13
τM ([11]; pH 7 ref 7): 20 ns
Δr1 (relaxivity increase) ([12]; from pH 7.4 to 5 ref 7): 5.5 mM^–1 s^–1
k1 (acid-catalyzed dissociation rate constant) ([10]; 298 K ref 7): 1.6 × 10^–4 M^–1 s^–1
kH × 10^–11 [13]: 2.1 M^–1 s^–1
^GdLH–1r1^is+os [13]: 4.32 mM^–1 s^–1
^GdLr1^is+os [13]: 4.57 mM^–1 s^–1

CC(O)CN1CCN(CC(=O)[O-])CCN(CC(=O)[O-])CCN(CC(=O)[O-])CC1.[Gd+3] (stereo not drawn) [GdHPDO3A]
kd at pH = 7.4 [9]: 1.15 × 10^–11 s^–1
^298r1-60-MHz ([11]; 60 MHz ref 24): 4.2 mM^–1 s^–1
^310r1-60-MHz ([11]; 60 MHz ref 24): 3.2 mM^–1 s^–1
Δ^2 ([11]; SAP isomer ref 24): 9.9 10^19 s^–2
τM ([11]; SAP isomer ref 24): 640 ns
τv ([11]; SAP isomer ref 24): 8 ps
Δ^2 ([11]; TSAP isomer ref 24): 1.5 10^19 s^–2
τM ([11]; TSAP isomer ref 24): 8.5 ns
τv ([11]; TSAP isomer ref 24): 30 ps
τR [11]: 65 ps
Δr1 (base-catalyzed proton exchange contribution to r1) ([12]; pH > 10 ref 5): 1.2 mM^–1 s^–1
k1 (acid-catalyzed dissociation rate constant) ([10]; 298 K ref 18): 2.9 × 10^–4 M^–1 s^–1
kOH × 10^–10 [13]: 1.0 M^–1 s^–1
^GdLH–1r1^is+os [13]: 4.54 mM^–1 s^–1
^GdLr1^is+os [13]: 4.28 mM^–1 s^–1

[Gd+3] [Gd^3+]
r1p [14]: 12.85 (2) mM^–1 s^–1

NC(=O)[C@H](O)CN1CCN(CC(=O)O)CCN(CC(=O)O)CCN(CC(=O)O)CC1 [HPADO3A]
Ca(L)H-1 (log K) [1, 15]: 11.50
CaHL (log K) [1, 15]: 4.67
CaL (log K, stability constant) ([1]; I = 0.15 M NaCl, 298 K ref 7): 12.13
GdH2L (log K, *Gd(H2L) out-of-cage intermediate) [2, 15]: 5.72
GdL (log KGdL, stability constant) ([2]; I = 0.15 M NaCl, 298 K ref 7): 18.41
Cu(L)H-1 (log K) [3, 15]: 10.55
CuH2L (log K) [3, 15]: 1.24
CuHL (log K) [3, 15]: 4.00
CuL (log K, stability constant) ([3]; I = 0.15 M NaCl, 298 K ref 7): 21.53
log K1^H ([4]; I = 0.15 M NaCl, 298 K ref 7): 8.96
log K2^H ([4]; I = 0.15 M NaCl, 298 K ref 7): 9.07
log K3^H ([4]; I = 0.15 M NaCl, 298 K ref 7): 4.22
log K4^H ([4]; I = 0.15 M NaCl, 298 K ref 7): 2.64
log K5^H ([4]; I = 0.15 M NaCl, 298 K ref 7): 1.25
pGd [5]: 16.88 ^h
Zn(L)H-1 (log K) [6, 15]: 10.79 (5)
ZnH2L (log K) [6, 15]: 2.87
ZnHL (log K) [6, 15]: 3.67
ZnL (log K, stability constant) ([6]; I = 0.15 M NaCl, 298 K ref 7): 17.18
Gd(L)H–1 (log KGd(L)H-1) ([8]; I = 0.15 M NaCl, 298 K ref 7): 6.73

CC(O)CN1CCN(CC(=O)O)CCN(CC(=O)O)CCN(CC(=O)O)CC1 (stereo not drawn) [HPDO3A, 10-(2-hydroxypropyl)-1,4,7,10-tetraazacyclododecane-1,4,7-triacetic acid]
CaL (log K, stability constant) [1, 16]: 14.83
GdL (log KGdL, stability constant) [2, 16]: 23.8
GdH2L (log K, *Gd(H2L) out-of-cage intermediate) ([2]; footnote 0.15 M NaCl, 25 °C ref [13], [14] (SI)): 5.10
CuH2L (log K) [3, 17]: 2.3
CuHL (log K) [3, 17]: 3.72
CuL (log K, stability constant) [3, 16]: 22.84
log K1^H [4, 16]: 11.96
log K2^H [4, 16]: 9.43
log K3^H [4, 16]: 4.30
log K4^H [4, 16]: 3.26
pGd [5]: 18.16 ^h
ZnHL (log K) [6, 17]: 3.7
ZnL (log K, stability constant) [6, 16]: 19.37
